Columns and labels:
[1] = Liquid; for mass density / speed of sound: 298.15 K; for mass density: 101.33 kPa, Vibrating tube method; for speed of sound: Sing-around technique in a fixed-path interferometer
[2] = refractive index (Na D-line) (dimensionless); conditions: 298.15 K; 101.33 kPa; Liquid; Standard Abbe refractometry
[3] = xn = mol fraction of the nth substance listed; conditions: 298.15 K, 101.3 kPa, Liquid; for speed of sound: Sing-around technique in a fixed-path interferometer
[4] = refractive index (Na D-line) (dimensionless); xn = mol fraction of the nth substance listed; conditions: 298.15 K, 101.3 kPa, Liquid, Standard Abbe refractometry

CC(C)CCO [3-methylbutan-1-ol]
Conditions | mass density [kg/m3] | refractive index | speed of sound [m/s]
[1] | 806.78 | – | 1238.8
[2] | – | 1.40515 | –

Conditions | vapor or sublimation pressure [kPa]
[1], 404.27 K | 101.3

CCCO [propan-1-ol]
Conditions | mass density [kg/m3] | refractive index | speed of sound [m/s]
[1] | 799.75 | – | 1205.7
[2] | – | 1.38304 | –

Conditions | vapor or sublimation pressure [kPa]
[1], 370.29 K | 101.3

CCC(C)CO (stereo unspecified) [2-methyl-1-butanol]
Conditions | mass density [kg/m3] | refractive index | speed of sound [m/s]
[1] | 814.87 | – | 1253.3
[2] | – | 1.40872 | –

Conditions | vapor or sublimation pressure [kPa]
[1], 401.93 K | 101.3

CCC(C)CO (stereo unspecified) [2-methyl-1-butanol] + CCCO
Conditions | mass density, [3] [kg/m3] | refractive index, [4] | speed of sound, [3] [m/s]
x2 = 0.051 | 814.37 | 1.40768 | 1252.4
x2 = 0.1 | 813.84 | 1.40677 | 1250.6
x2 = 0.151 | 813.28 | 1.40573 | 1248.7
x2 = 0.2 | 812.71 | 1.40478 | 1246.8
x2 = 0.251 | 812.09 | 1.4038 | 1244.7
x2 = 0.3 | 811.46 | 1.40272 | 1242.8
x2 = 0.351 | 810.8 | 1.40164 | 1240.5
x2 = 0.408 | 810.04 | 1.40039 | 1238
x2 = 0.45 | 809.44 | 1.39934 | 1236.1
x2 = 0.501 | 808.69 | 1.39815 | 1233.7
x2 = 0.55 | 807.94 | 1.39697 | 1231.3
x2 = 0.6 | 807.14 | 1.39556 | 1228.8
x2 = 0.65 | 806.3 | 1.39422 | 1226.2
x2 = 0.7 | 805.38 | 1.39279 | 1223.2
x2 = 0.75 | 804.5 | 1.39133 | 1220.7
x2 = 0.801 | 803.53 | 1.38982 | 1217.6
x2 = 0.85 | 802.6 | 1.38815 | 1214.8
x2 = 0.899 | 801.61 | 1.38658 | 1211.8
x2 = 0.949 | 800.64 | 1.38483 | 1208.7

CC(C)CCO [3-methylbutan-1-ol] + CCCO
Conditions | mass density, [3] [kg/m3] | refractive index, [4] | speed of sound, [3] [m/s]
x2 = 0.05 | 806.4 | 1.40447 | 1234.4
x2 = 0.1 | 806.12 | 1.40366 | 1233.5
x2 = 0.15 | 805.83 | 1.40281 | 1232.3
x2 = 0.201 | 805.54 | 1.402 | 1231.1
x2 = 0.251 | 805.25 | 1.40115 | 1230
x2 = 0.3 | 804.97 | 1.4002 | 1228.8
x2 = 0.351 | 804.66 | 1.39919 | 1227.5
x2 = 0.4 | 804.37 | 1.3983 | 1226.2
x2 = 0.45 | 804.07 | 1.39734 | 1224.9
x2 = 0.5 | 803.75 | 1.39621 | 1223.4
x2 = 0.551 | 803.41 | 1.39507 | 1222
x2 = 0.6 | 803.08 | 1.39396 | 1220
x2 = 0.65 | 802.72 | 1.39278 | 1218.5
x2 = 0.7 | 802.34 | 1.39148 | 1217
x2 = 0.749 | 801.96 | 1.39035 | 1215.3
x2 = 0.799 | 801.55 | 1.38898 | 1213.6
x2 = 0.85 | 801.13 | 1.38757 | 1211.8
x2 = 0.9 | 800.69 | 1.3861 | 1210
x2 = 0.95 | 800.22 | 1.38458 | 1208.2

— the NIST ThermoML archive (doi:10.1021/je0502142)
